# Data published in ChEMBL document CHEMBL1155125 (Bioorg Med Chem Lett, 2008).
# Columns and labels:
# [1] = tested on: Cystic fibrosis transmembrane conductance regulator (Homo sapiens), P13569 [F508del]; assay: Agonist activity at CFTR-deltaF508 mutant expressed in NIH3T3 cells assessed as increase in forskolin-stimulated current at 30 uM by whole cell assay relative to genistein; format: functional, cell-based
# [2] = tested on: Cystic fibrosis transmembrane conductance regulator (Homo sapiens), P13569 [F508del]; assay: Agonist activity at CFTR-deltaF508 mutant expressed in NIH3T3 cells assessed as increase in forskolin-stimulated current at 20 uM by whole cell assay relative to control; format: functional, cell-based
# [3] = tested on: Cystic fibrosis transmembrane conductance regulator (Homo sapiens), P13569 [F508del]; assay: Agonist activity at CFTR-deltaF508 mutant expressed in NIH3T3 cells assessed as increase in forskolin-stimulated current at 30 uM by whole cell assay relative to control; format: functional, cell-based
# [4] = tested on: Cystic fibrosis transmembrane conductance regulator (Homo sapiens), P13569 [K1250A]; assay: Agonist activity at CFTR-K1250A mutant assessed as increase in forskolin-stimulated current at 5 uM; format: functional
# Sequence of Cystic fibrosis transmembrane conductance regulator (Homo sapiens), P13569 [K1250A] (P13569 whole entry K1250A): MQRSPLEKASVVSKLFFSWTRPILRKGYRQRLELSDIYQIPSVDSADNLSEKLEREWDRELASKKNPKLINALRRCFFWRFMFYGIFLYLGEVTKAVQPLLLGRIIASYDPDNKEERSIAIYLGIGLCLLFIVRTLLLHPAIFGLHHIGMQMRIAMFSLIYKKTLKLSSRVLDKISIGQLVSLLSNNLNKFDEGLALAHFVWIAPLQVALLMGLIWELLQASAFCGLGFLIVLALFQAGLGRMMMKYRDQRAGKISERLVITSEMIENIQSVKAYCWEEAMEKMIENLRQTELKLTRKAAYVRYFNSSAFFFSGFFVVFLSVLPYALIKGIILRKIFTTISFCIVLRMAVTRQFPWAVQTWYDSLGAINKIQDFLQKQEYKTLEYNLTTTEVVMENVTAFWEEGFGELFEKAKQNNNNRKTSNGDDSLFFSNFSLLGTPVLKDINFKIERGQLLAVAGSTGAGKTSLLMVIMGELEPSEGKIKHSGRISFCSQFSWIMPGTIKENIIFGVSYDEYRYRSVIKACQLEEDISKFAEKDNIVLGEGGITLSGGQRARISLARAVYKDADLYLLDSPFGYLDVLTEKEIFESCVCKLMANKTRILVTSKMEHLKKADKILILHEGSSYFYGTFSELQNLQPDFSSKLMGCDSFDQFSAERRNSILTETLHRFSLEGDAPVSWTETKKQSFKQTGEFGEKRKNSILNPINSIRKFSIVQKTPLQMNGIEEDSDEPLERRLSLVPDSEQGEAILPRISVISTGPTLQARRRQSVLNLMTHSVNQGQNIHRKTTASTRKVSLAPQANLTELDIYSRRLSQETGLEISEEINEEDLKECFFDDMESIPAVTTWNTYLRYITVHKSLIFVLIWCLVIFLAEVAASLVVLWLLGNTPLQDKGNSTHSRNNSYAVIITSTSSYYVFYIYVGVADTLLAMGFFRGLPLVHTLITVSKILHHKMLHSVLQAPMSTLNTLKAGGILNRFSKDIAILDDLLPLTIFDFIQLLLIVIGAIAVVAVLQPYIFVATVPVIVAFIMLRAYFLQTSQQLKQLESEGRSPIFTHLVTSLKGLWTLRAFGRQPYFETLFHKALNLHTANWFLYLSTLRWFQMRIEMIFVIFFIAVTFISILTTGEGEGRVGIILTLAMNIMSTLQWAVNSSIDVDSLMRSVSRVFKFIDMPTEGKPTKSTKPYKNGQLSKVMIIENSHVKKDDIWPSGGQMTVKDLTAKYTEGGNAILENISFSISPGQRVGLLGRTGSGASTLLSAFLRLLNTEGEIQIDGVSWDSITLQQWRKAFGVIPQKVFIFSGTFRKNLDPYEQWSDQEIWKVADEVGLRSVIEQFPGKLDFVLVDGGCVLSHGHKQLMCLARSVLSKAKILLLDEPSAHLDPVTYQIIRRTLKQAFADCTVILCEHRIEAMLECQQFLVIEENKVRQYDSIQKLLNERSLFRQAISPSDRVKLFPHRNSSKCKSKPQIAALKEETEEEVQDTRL
# [5] = biological target: Cystic fibrosis transmembrane conductance regulator (Homo sapiens, UniProt P13569, F508DEL); assay: Agonist activity at CFTR-deltaF508 mutant expressed in NIH3T3 cells assessed as increase in forskolin-stimulated current; format: functional, cell-based
# Sequence of Cystic fibrosis transmembrane conductance regulator (P13569 as listed by the source): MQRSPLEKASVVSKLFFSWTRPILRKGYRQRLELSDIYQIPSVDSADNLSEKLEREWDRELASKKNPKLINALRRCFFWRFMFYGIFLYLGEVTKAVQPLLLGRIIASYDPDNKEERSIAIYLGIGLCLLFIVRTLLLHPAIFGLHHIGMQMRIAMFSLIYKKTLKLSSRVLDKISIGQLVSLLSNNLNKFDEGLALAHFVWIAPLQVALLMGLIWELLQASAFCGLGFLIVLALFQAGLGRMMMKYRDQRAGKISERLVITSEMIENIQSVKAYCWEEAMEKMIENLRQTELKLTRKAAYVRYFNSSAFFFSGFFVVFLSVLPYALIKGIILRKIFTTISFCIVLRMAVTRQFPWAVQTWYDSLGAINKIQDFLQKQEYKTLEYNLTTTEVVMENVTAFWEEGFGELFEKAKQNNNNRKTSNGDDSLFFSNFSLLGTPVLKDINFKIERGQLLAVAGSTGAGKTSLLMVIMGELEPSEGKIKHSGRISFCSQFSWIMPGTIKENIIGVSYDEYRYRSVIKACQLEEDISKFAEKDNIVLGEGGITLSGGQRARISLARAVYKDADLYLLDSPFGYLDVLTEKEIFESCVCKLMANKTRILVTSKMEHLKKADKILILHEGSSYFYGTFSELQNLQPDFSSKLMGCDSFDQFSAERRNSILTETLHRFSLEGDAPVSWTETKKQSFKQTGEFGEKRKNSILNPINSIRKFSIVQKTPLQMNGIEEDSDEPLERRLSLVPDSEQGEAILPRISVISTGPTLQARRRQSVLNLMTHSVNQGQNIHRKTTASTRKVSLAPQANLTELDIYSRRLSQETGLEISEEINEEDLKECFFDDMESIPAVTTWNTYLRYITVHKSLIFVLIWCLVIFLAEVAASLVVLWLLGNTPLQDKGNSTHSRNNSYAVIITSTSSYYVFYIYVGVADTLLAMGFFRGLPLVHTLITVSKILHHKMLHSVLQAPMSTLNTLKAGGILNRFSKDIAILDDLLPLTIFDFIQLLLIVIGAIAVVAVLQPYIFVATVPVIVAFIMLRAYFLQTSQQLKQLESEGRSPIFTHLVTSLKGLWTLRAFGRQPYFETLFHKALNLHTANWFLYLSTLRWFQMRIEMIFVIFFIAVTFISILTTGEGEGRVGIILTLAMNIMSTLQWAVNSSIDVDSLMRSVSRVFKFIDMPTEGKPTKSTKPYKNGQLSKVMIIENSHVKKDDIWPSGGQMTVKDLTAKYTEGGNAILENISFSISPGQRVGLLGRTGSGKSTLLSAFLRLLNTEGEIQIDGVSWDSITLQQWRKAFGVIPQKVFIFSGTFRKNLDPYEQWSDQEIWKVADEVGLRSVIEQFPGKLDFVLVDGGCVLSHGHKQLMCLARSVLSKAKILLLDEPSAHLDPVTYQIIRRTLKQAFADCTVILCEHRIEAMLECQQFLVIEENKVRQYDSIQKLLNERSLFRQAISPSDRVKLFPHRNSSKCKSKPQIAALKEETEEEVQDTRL
# Sequence of Cystic fibrosis transmembrane conductance regulator (Homo sapiens), P13569 [F508del] (P13569 as listed by the source): as above
Activity [1],fold change (FC) [2],fold change (FC) [3],fold change (FC) [4],EC50 [5],Compound
31%,3.69,3.76,1.11,3.5 µM,O=c1cc(-c2ccncc2)oc2c1ccc1ccccc12
–,8.29,–,–,–,O=c1c(-c2ccc(O)cc2)coc2cc(O)cc(O)c12
